Experimental data from patent US20230172994A1, “METHODS OF PROMOTING VASCULOGENESIS” (TissueTech, Inc., priority 2019, published 2023).

Legend:
Assay type in all cases: cell-based, human
P10 LNC [1] = assay: Immunofluorescence staining (cytospin), nuclear translocation
Method: Immunostaining: LNC were then subjected to cytospin to determine nuclear translocation of HIF1α, HIF1β, HIF2α, SDF-1, CXCR4, and Hes1 at 5, 15, 30 and 60 mins.
Single cells of LNC or CSC at different passages were harvested with 0.05% trypsin and 1 mM EDTA at 37° C. for 10 min and prepared for cytospin using Cytofuge (StatSpin Inc., Norwood, Mass.) at 1000 g for 8 min. Cells were fixed with 4% formaldehyde, pH 7.0, for 15 min at room temperature, permeabilized with 0.2% Triton X-100 in PBS for 15 min and blocked with 2% bovine serum albumin (BSA) for 1 h before incubated with primary antibodies for 16 h at 4° C. After 3 washes with PBS, the corresponding Alexa Fluor-conjugated secondary IgG (all 1:100 dilution) were incubated for 60 min and 3 washing with PBS. After 3 washes with PBS, the second primary antibodies were incubated for 60 min and followed with the corresponding Alex Fluor-conjugated secondary IgG. The nucleus was counterstained with Hoechst 33342 before being analyzed with Zeiss LSM 700 confocal microscope (Carl Zeiss, Thornwood, N.Y.). Corresponding mouse and rabbit sera were used as negative controls for primary monoclonal and polyclonal antibodies, respectively.

P10 LNC [2] = assay: Subcellular fractionation and Western blotting
Method: Nuclear and cytoplasmic fractions were prepared using the NE-PER® Nuclear and Cytoplasmic Extraction Reagents Kit (Pierce, Rockford, Ill., USA) as per manufacturer's instruction. Briefly, the treated P10 LNC were washed once on cold PBS and centrifuged at 500 g for 5 min.
The cell pellet was suspended in 100 μL of cytoplasmic extraction reagent I containing protease inhibitor by vortexing. The suspension was incubated on ice for 10 min followed by the addition of 6 μL of a second cytoplasmic extraction reagent II, vortexed for 5s, incubated on ice for 1 min and centrifuged for 5 min at 16 000 g. The supernatant fraction (cytoplasmic extract) was transferred to a pre-chilled tube. The insoluble pellet fraction, which contains crude nuclei, was resuspended in 50 μL of nuclear extraction reagent by vortexing during 15s three times and incubated on ice for 10 min each, then centrifuged for 10 min at 16 000 g. The resulting supernatant, constituting the nuclear extract, was used for the subsequent experiments. Protein concentration was quantitated using the BCA protein assay kit (Pierce). […] Immunoreactive proteins were detected with Western Lighting Chemiluminescence (PerkinElmer, Waltham, Mass.) and images captured by GE ImageQuant LAS 4000 (GE Healthcare Biosciences, Pittsburgh, Pa.).

P10 LNC [3] = assay: Time course mRNA expression by qPCR
Method: (§1) Cell culture: For time course study, 1×10^5/ml of P10 LNC was seeded on three substrates: 3D Matrigel™, HA, or HC-HA/PTX3 in MESCM at 5, 15, 30, 60 mins, 24 h and 48 h (Table 2).
qPCR: Comparisons were made of mRNA expression of HIF1α, HIF1β, HIF2α, SDF-1, CXCR4, Hes1 at 5, 15, 30, 60, 120, 240 min or 24 and 48 h.
Cell culture: 1×10^5/ml of P10 LNC was seeded on three substrates: 3D Matrigel™ HA, or HC-HA/PTX3 in MESCM for 48 h. For time course study on HC-HA/PTX3, P10 LNC will be treated HC-HA/PTX3 for 5, 15, 30, 60 mins, 24 h and 48 h.
qPCR: Comparison mRNA expression VEGF, PDGFα, CD31 and IGF-1 for angiogenesis and NGF and p75^NTR for neurogenesis at 5, 15, 30, 60, 120, 240 min 24 or 48 h on 3D MG, immobilized HA and immobilized HC-HA/PTX3.
(§2) For the siRNA knockdown, 80% confluent P10 LNC on 6-well coated MG were subjected to transfection by mixing 200 μL of serum-free, antibiotic-free MESCM with 4 μL of HiPerFect siRNA transfection reagent (Final dilution, 1:300) and 6 μL of 20 μM of scRNA or siRNAs for BMPR1A, BMPR1B, BMPR2, and ACVR1 at the final concentration of 100 nM, drop-wise, followed by culturing in 1 mL of fresh MESCM at 37° C. for 24 h before soluble HC-HA/PTX3 was added at a final concentration of 20 μg/mL in MESCM.
Total RNAs were extracted from expanded LNC by RNeasy Mini Kit (Qiagen, Valencia, Calif.) according to manufacturer's guideline and 1-2 ug of RNA extract was reverse transcribed to cDNA with reverse-transcribed using Applied Biosystem™ High Capacity Reverse Transcription Kit (Thermo Fisher, Santa Clara, Calif.) using primers. The resultant cDNAs were amplified by specific TaqMan gene expression assay mix and universal PCR master mix in QuantStudio™ 5 Real Time PCR System (Thermo Fisher, Santa Clara, Calif.) with real-time RT-PCR profile consisting of 10 min of initial activation at 95° C., followed by 40 cycles of 15 sec denaturation at 95° C., and 1 min annealing and extension at 60° C. […] Threshold cycle number (Ct) was calculated with QuantStudio Design and. […] The relative gene expression data were analyzed by the comparative CT method (ΔΔCT). […]

LEPC and LNC = assay: Blocking Notch signaling in LEPC+LNC on immobilized HC-HA/PTX3
Method: FIGS. 41A-41C illustrate blocking Notch signaling inhibits BMP and non-canonical Wnt in LEPC and LNC on immobilized HC-HA/PTX3 at 48 hours. FIG. 41A illustrates a graph of mRNA levels of various genes following treatment of HC-HA/PTX3 and HC-HA/PTX3/DAPT in LNCS renunioned with LEPC. FIG. 41B illustrates immunostaining with various markers.

P4 LNC [4] = assay: Notch signaling and transcript expression in P4 LNC on plastic, 3D Matrigel or immobilized HC-HA/PTX3
P4 LNC [5] = assay: Immunofluorescence staining (cytospin), nuclear translocation
Method: Cell culture: For time course study, 1×10^5/ml of P4 LNC were seeded on substrates HA or HC-HA/PTX3 in MESCM at 5, 15, 30, 60 min, 24 h and 48 h (Table 3).
Immunostaining: LNC then were subjected to cytospin to determine nuclear translocation of HIF1α, HIF1β, HIF2α, SDF-1, CXCR4, and Hes1 at 5, 15, 30 and 60 min.

HUVEC or pericytes (LNC) = assay: Cell proliferation by Edu nuclear staining; details: HUVEC or pericytes (LNC) alone
Source text: Cells: GFP HUVEC (P3) were purchased from Neuromics (Cat #GF01). These cells were isolated from normal human umbilical vein and transfected with GFP-lentiviral particle at passage 1. Puromycin resistant GFP HUVEC were maintained on fibronectin coated solution in Endo-growth medium containing 5% FBS and growth supplement until passage 3. Cells were split 1:3 every three days when ˜70%-90% confluence is reached. Cells of passage 3-8 were used for all experiments.
LNC (P2-P5) was expanded in MESCM containing 4 ng/ml bFGF and 10 ng/ml LIF on 6-well plastic coated with 5% Matrigel™

P10 LNC [6] = assay: Cell aggregation / sphere formation by phase contrast microscopy
Method: as §1
For expansion, single cells derived from limbal clusters or CSC after digestion with 0.25% trypsin and 1 mM EDTA (T/E) were seeded at 1×10^4/cm^2 in the 6-well plate pre-coated with 5% Matrigel™ in MESCM and cultured in humidified 5% CO2 with media change every 3-4 days for total 6-7 days. For cells culture in three-dimensional (3D) Matrigel, Matrigel was prepared by adding 50% Matrigel diluted in MESCM per chamber of an 8-well chamber slide following incubation at 37° C. for 60 min. LNC cells were seeded in 3D Matrigel and cultured for 24 h or 48 h in MESCM.
as §2

Rac1 = assay: Rho GTPase activity in LNC; details: within 60 minutes, HC-HA/PTX3 active at 5 and 15 min, reduced at 30 min

Molecule: c1cc(CN2CCCNCCNCCCNCC2)ccc1CN1CCCNCCNCCCNCC1 [AMD3100]
- CXCR4 staining (P10 LNC [1]; 60 min period, P10 LNC, soluble HC-HA/PTX3 with or without AMD3100, or 3D MG): reverted to that of 3D MG
- nuclear staining of pSmad1/5 (P10 LNC [1]; P10 LNC, soluble HC-HA/PTX3 with or without AMD3100): absent nuclear staining
- immunofluorescence of SDF-1 (P10 LNC [1]; throughout 60 min): became negative
- nuclear pSmad1/5 (P10 LNC [2]; 5, 15, 30 min): not promoted
- CXCR4 and Pax6 protein in cytoplasmic and nuclear fractions (P10 LNC [2]; 15 and 30 min, AMD3100 all time points): remain in cytoplasmic fraction
- HIF-1α and HIF-1β transcripts (P10 LNC [3]; addition of AMD3100): upregulated two peaks
- transcript levels of BMP2, BMP4 and BMP6, effect of inhibitor (P10 LNC [3]; throughout 48 h, with soluble HC-HA/PTX3): aborted
- Pax6, p75NTR, NGF, Musashi-1, Msx-1 and FoxD3 transcripts, effect of inhibitor (P10 LNC [3]; with soluble HC-HA/PTX3): significant downregulation

Molecule: C[C@H](NC(=O)Cc1cc(F)cc(F)c1)C(=O)N[C@H](C(=O)OC(C)(C)C)c1ccccc1 [DAPT]
- nuclear psmad/1/5/8 and c-Jun (LEPC and LNC; LEPC+LNC on immobilized HC-HA/PTX3): absence
- quiescence epithelium markers (LEPC and LNC; LEPC+LNC on immobilized HC-HA/PTX3, 48 hours): significantly downregulated
- cell aggregation of LNC on HC-HA/PTX3, effect of inhibitor (P4 LNC [4]): did not prevent
- Notch1/2/3/Jagged 1/Hes1 signaling with MET epithelial phenotype (p63α, Pax6, Sox9), effect of inhibitor (P4 LNC [4]; LNC on HC-HA/PTX3): further promoted

Molecule: hyaluronic acid [HA]
- nuclear PP2A C subunit (P10 LNC [1]; 5 and 30 min, comparators entire 60 min): significantly less expression
- CXCR4 localisation (P10 LNC [1]; HC-HA/PTX3: as early as 15 min, prominent at 30 min, no longer nuclear at 60 min): membrane translocation
- staining of HIF1α and HIF1β (P10 LNC [1]; HC-HA/PTX3: at 5 min, HIF1α sustained till 15 and 30 min): both cytoplasmic and nuclear
- nuclear p-PHD2 (serine 125) (P10 LNC [1]; HC-HA/PTX3 at 5 and 15 min, HA and 3D MG throughout 60 min): maintained nuclear Phospho-PHD2
- earliest nucleus Hes1 (P10 LNC [1]; P10 LNC): 15 min
- HIF2α (P4 LNC [5]): No changes
- NICD and SDF1 (P4 LNC [5]): No changed
- time of HIF1α nuclear translocation (P4 LNC [5]): did the same
- time of HIF1β nuclear translocation (P4 LNC [5]): 5 to 30 min
- time of Hes1 nuclear translocation (P4 LNC [5]): 5 to 15 min
- CXCR4 nuclear translocation (P4 LNC [5]; 5, 30 min, transient): does not
- cell proliferation (Edu nuclear staining) (HUVEC or pericytes (LNC)): promoted cell proliferation
- cell aggregation as early as 60 min (P10 LNC [6]): not
- Rac1 GTPase activities (Rac1): gradual decline
